Experimental data published in patent US7595401B2, “Therapeutic compounds and their use in cancer” (Myriad Pharmaceuticals, Inc., priority 2006, dated 2009).

Target: purified human Hsp90
Experiment: Binding Assay: fluorescence polarization with BODIPY-labeled geldanamycin
Conditions: BODIPY-GM 10 nM, Hsp90 30 nM
Description: Compound binding to purified Hsp90 was monitored using BODIPY-labeled geldanamycin (BODIPY-GM) in a fluorescence polarization assay adapted from Kim et al. (Journal of Biomolecular Screening 2004, 9(5):375-381). Compound dilutions (in 100% DMSO) were added to black-bottom 96-well plates (Greiner; 2% DMSO final), and equal volumes of BODIPY-GM (10 nM final) and purified human Hsp90 (Stressgen, SPP-770; 30 nM final) in assay buffer (20 mM HEPES-KOH pH 7.3, 50 mM KCl, 5 mM MgCl2, 20 mM Na2MoO4, 0.01% NP-40, 0.1 mg/mL bovine gamma globulin [Invitrogen, P2045], 2 mM DTT) were added sequentially to yield a final volume of 50 microliters. Plates were incubated overnight at room temperature. Parallel and perpendicular fluorescence measurements were read (LJL BioSystems Analyst AD plate reader) with excitation/emission wavelengths of 485/530 nm. Background fluorescence (buffer only) was subtracted, and fluorescence polarization (FP) values, expressed in mP units, were calculated from parallel and perpendicular fluorescence readings as follows: FP=(parallel−perpendicular)/(parallel+perpendicular)*1000
Percent inhibition was calculated by normalizing the FP values to those obtained in parallel reactions containing DMSO and subtracting these normalized values from 100%. Intrinsic compound fluorescence was independently monitored, and FP data points confounded by compound fluorescence were excluded from the analysis.

Compound | IC50 | % Inhibition at 5 μM Compound Concentration
COc1ccc(OC)c(Sc2nc3c(N)ncnc3n2CCc2cccc(I)c2)c1 [Example 137, 8-(2,5-Dimethoxy-phenylsulfanyl)-9-[2-(3-iodo-phenyl)-ethyl]-9H-purin-6-ylamine] | 210 nM | –
CC(=O)Nc1ccc(Sc2nc3c(N)ncn(CCC4CCN(C=O)CC4)c-3n2)c(Cl)c1 [Example 549, N-[4-({6-Amino-3-[2-(1-formylpiperidin-4-yl)ethyl]-3 H-purin-8-yl}thio)-3-chlorophenyl]acetamide] | – | 11.00%
CC1CC1C(=O)N1CCC(CCn2c(Sc3cc4c(cc3Br)OCO4)nc3c(N)ncnc32)CC1 (centres unmarked) [Example 518, 8-[(6-Bromo-1,3-benzodioxol-5-yl)thio]-9-(2-{1-[(2-methylcyclopropyl)carbonyl]piperidin-4-yl}ethyl)-9 H-purin-6-amine] | 140 nM | –
COc1ccc(CN2CCC(CCn3c(Sc4cc5c(cc4Br)OCO5)nc4c(N)ncnc43)CC2)cc1 [Example 594, 8-[(6-Bromo-1,3-benzodioxol-5-yl)thio]-9-{2-[1-(4-methoxybenzyl)piperidin-4-yl]ethyl}-9 H-purin-6-amine] | 270 nM | –
COc1ccc(OC)c(Sc2nc3c(N)ncnc3n2CCc2c(C)cc(C)cc2C)c1 [Example 55, 8-(2,5-Dimethoxy-phenylsulfanyl)-9-[2-(2,4,6-trimethyl-phenyl)-ethyl]-9H-purin-6-ylamine] | 1700 nM | –
COc1ccc(OC)c(Sc2nc3c(N)ncnc3n2Cc2ccc([N+](=O)[O-])cc2)c1 [Example 84, 8-(2,5-Dimethoxy-phenylsulfanyl)-9-(4-nitro-benzyl)-9H-purin-6-ylamine] | > 5000 nM | 0%
CC(=O)N1CCCC(CCn2c(Sc3cc4c(cc3Br)OCO4)nc3c(N)ncnc32)C1 (centres unmarked) [Example 400, 9-[2-(1-Acetylpiperidin-3-yl)ethyl]-8-[(6-bromo-1,3-benzodioxol-5-yl)thio]-9H-purin-6-amine] | 6000 nM | –
CO[C@@H](C)C(=O)N1CCC(CCn2cnc(N)c3nc(Sc4cc5c(cc4Br)OCO5)nc2-3)CC1 [Example 727, 8-[(6-Bromo-1,3-benzodioxol-5-yl)thio]-3-(2-{1-[(2S)-2-methoxypropanoyl]piperidin-4-yl}ethyl)-3 H-purin-6-amine] | 32000 nM | –
COc1ccc(OC)c(Sc2nc3c(N)ncn(CCN4CCOCC4)c-3n2)c1 [Example 636, 8-[(2,5-Dimethoxyphenyl)thio]-3-(2-morpholin-4-ylethyl)-3 H-purin-6-amine] | – | 25.00%
Nc1ncnc2c1nc(Sc1cc3c(cc1Br)OCO3)n2CCc1cccc(F)c1 [Example 109, 8-(6-Bromo-benzo[1,3]dioxol-5-ylsulfanyl)-9-[2-(3-fluoro-phenyl)-ethyl]-9H-purin-6-ylamine] | 300 nM | –
Nc1ncnc2c1nc(Sc1cc3c(cc1Br)OCO3)n2CC[C@@H]1CCCNC1 [Example 474, 8-[(6-Bromo-1,3-benzodioxol-5-yl)thio]-9-{2-[(3S)-piperidin-3-yl]ethyl}-9 H-purin-6-amine] | 140 nM | –
CC(=O)N1CCC(CCn2c(Sc3nc(C)c(CC(N)=O)s3)nc3c(N)ncnc32)CC1 [Example 660, 2-[2-({9-[2-(1-Acetylpiperidin-4-yl)ethyl]-6-amino-9H-purin-8-yl}thio)-4-methyl-1,3-thiazol-5-yl]acetamide] | > 5000 nM | –
C[C@H](NC(=O)OC(C)(C)C)C(=O)N1CCC(CCn2c(Br)nc3c(N)ncnc32)CC1 [Example 772, tert-Butyl ((1S)-2-{4-[2-(6-amino-8-bromo-9H-purin-9-yl)ethyl]piperidin-1-yl}-1-methyl-2-oxoethyl)carbamate] | > 5000 nM | –
CC12CCC(CC(CCn3cnc(N)c4nc(Sc5cc6c(cc5Br)OCO6)nc3-4)C1)O2 (centres unmarked) [Example 608, 8-[(6-Bromo-1,3-benzodioxol-5-yl)thio]-3-{2-[1-methyl-8-oxabicyclo[3.2.1]oct-3-yl]ethyl}-3 H-purin-6-amine] | – | 5.00%
CCCCNC(=O)Nc1ccc(CCn2c(Sc3cc(OC)ccc3OC)nc3c(N)ncnc32)cc1 [Example 277, N-[4-(2-{6-Amino-8-[(2,5-dimethoxyphenyl)thio]-9H-purin-9-yl}ethyl)phenyl]-N′-butylurea] | > 8000 nM | –
COc1ccc([N+](=O)[O-])cc1Sc1nc2c(N)ncnc2n1CCC1CCN(C=O)CC1 [Example 536, 4-(2-{6-Amino-8-[(2-methoxy-5-nitrophenyl)thio]-9 H-purin-9-yl}ethyl)piperidine-1-carbaldehyde] | > 5000 nM | –
Nc1ncn(CCc2c(Cl)cccc2Cl)c2nc(Sc3cc4c(cc3Br)OCO4)nc1-2 [Example 129, 8-(6-bromo-benzo[1,3]dioxol-5-ylsulfanyl)-3-[2-(2,6-dichloro-phenyl)-ethyl]-3H-purin-6-ylamine] | – | 54%
COc1ccc(OC)c(Sc2nc3c(N)ncnc3n2CCc2cc(C)ccc2C)c1 [Example 115, 8-(2,5-Dimethoxy-phenylsulfanyl)-9-[2-(2,5-dimethyl-phenyl)-ethyl]-9H-purin-6-ylamine] | 110 nM | –
COc1ccc(OC)c(Sc2nc3c(N)ncnc3n2CCc2ccccn2)c1 [Example 135, 8-(2,5-Dimethoxy-phenylsulfanyl)-9-(2-pyridin-2-yl-ethyl)-9H-purin-6-ylamine] | 1300 nM | –
CCOc1ccc(OCC)c(Sc2nc3c(N)ncnc3n2CCc2ccccc2Cl)c1 [Example 191, 9-[2-(2-Chloro-phenyl)-ethyl]-8-(2,5-diethoxy-phenylsulfanyl)-9H-purin-6-ylamine] | > 8000 nM | –
COc1ccc(OC)c(Sc2nc3c(N)ncnc3n2CCc2cc(OC)c(OC)c(OC)c2)c1 [Example 89, 8-(2,5-Dimethoxy-phenylsulfanyl)-9-[2-(3,4,5-trimethoxy-phenyl)-ethyl]-9H-purin-6-ylamine] | > 10000 nM | –
COc1ccc(OC)c(Sc2nc3c(N)ncnc3n2CCc2ccccc2[N+](=O)[O-])c1 [Example 205, 8-(2,5-Dimethoxy-phenylsulfanyl)-9-[2-(2-nitro-phenyl)-ethyl]-9H-purin-6-ylamine] | 240 nM | 80%
CC(=O)N1CCC(CCn2c(Sc3cc4c(cc3C#N)OCO4)nc3c(N)ncnc32)CC1 [Example 620, 6-({9-[2-(1-Acetylpiperidin-4-yl)ethyl]-6-amino-9 H-purin-8-yl}thio)-1,3-benzodioxole-5-carbonitrile] | 170 nM | –
C[C@H](O)C(=O)N1CCC(CCn2c(Sc3nc4cccc(Cl)c4s3)nc3c(N)ncnc32)CC1 [Example 775, (2S)-1-[4-(2-{6-Amino-8-[(7-chloro-1,3-benzothiazol-2-yl)thio]-9H-purin-9-yl}ethyl)piperidin-1-yl]-1-oxopropan-2-ol] | 1800 nM | –
C[C@@H](N)C(=O)N1CCC(CCn2c(Sc3cc4c(cc3Br)OCO4)nc3c(N)ncnc32)CC1 [Example 746, 9-(2-{1-[(2R)-2-Aminopropanoyl]piperidin-4-yl}ethyl)-8-[(6-bromo-1,3-benzodioxol-5-yl)thio]-9H-purin-6-amine] | 240 nM | –
COc1ccc(OC)c(Sc2nc3c(N)ncnc3n2CCn2cccc2)c1 [Example 65, 8-(2,5-Dimethoxy-phenylsulfanyl)-9-(2-pyrrol-1-yl-ethyl)-9H-purin-6-ylamine] | 500 nM | 61%
